# Side chains are listed from the residue outwards. Peptide text beside a SMILES is read from it. * marks the point of attachment. Biotin = O=C1N[C@H]2[C@H](CS[C@H]2CCCCC(=O)*)N1; X1 = N=C(N)NCCCC(N*)P(=O)(Oc1ccccc1)Oc1ccccc1; Palmitoyl = CCCCCCCCCCCCCCCC(=O)*; Ahx = NCCCCCC(=O)O
# Tests used:
# [1] = target: T1, proteinase 3 (Homo sapiens, UniProt P24158); assay: Fluorogenic protease activity assay, proteinase 3; type: biochemical; conditions: 10 μM inhibitor, MeO-Suc-Ala-Ala-Pro-Val-NH2Mec 50 μM, N = 3
# T1 construct: purchased Elastin Products, Missouri
# T1 sequence (P24158 28-256): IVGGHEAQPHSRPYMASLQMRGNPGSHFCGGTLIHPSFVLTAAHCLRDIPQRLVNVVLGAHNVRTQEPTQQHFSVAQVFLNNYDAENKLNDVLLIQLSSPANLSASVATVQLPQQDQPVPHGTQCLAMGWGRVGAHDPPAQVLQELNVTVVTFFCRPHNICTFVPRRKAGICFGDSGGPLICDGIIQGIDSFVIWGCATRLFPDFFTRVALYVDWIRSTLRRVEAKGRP
# Text: (§1) Recombinant human enzymes were sourced as follows: furin and matriptase (R&D Systems); prostasin (Sino Biological); trypsin and chymotrypsin (Sigma-Aldrich); factor Xa and neutrophil elastase (Merck Millipore) and proteinase-3 and cathepsin G (Elastin Products, Missouri). Fluorogenic substrates were sourced as follows: p-Glu-Arg-Thr-Lys-Arg-NH2Mec and Boc-Gln-Ala-Arg-NH2Mec (R&D Systems); Boc-Ile-Glu-Gly-Arg-NH2Mec (Bachem); Z-Gly-Gly-Arg-NH2Mec, MeOSuc-Ala-Ala-Pro-Val-NH2Mec and Suc-Ala-Ala-Pro-Phe-NH2Mec (Sigma-Aldrich). All chemicals and reagents for the synthesis of QUB-F1 were supplied by Sigma-Aldrich unless otherwise indicated. Fmoc-Lys(Boc)-SASRIN resin was sourced from Bachem. Fmoc-protected amino acids and HCTU were supplied by Merck Millipore.
# (§2) Recombinant protease activities were assessed using the cognate fluorogenic substrates (final concentration 50 μM) as follows: trypsin (Z-Gly-Gly-Arg-NH2Mec), prostasin and matriptase (Boc-Gln-Ala-Arg-NH2Mec), factor Xa (Boc-Ile-Glu-Gly-Arg-NH2Mec), neutrophil elastase and proteinase 3 (MeO-Suc-Ala-Ala-Pro-Val-NH2Mec), chymotrypsin and cathepsin G (Suc-Ala-Ala-Pro-Phe-NH2Mec). The rate of substrate hydrolysis in the presence or absence of furin inhibitors was assessed by continuous recording at λex 360 nm, λem 480 nm, over a period of 60 minutes using a FLUOstar Optima microplate reader (BMG Labtech). […]
# [2] = system: chymotrypsin; assay: Fluorogenic protease activity assay, chymotrypsin; type: biochemical, human; conditions: 10 μM inhibitor, Suc-Ala-Ala-Pro-Phe-NH2Mec 50 μM, N = 3
# Text: as §1, §2
# [3] = system: trypsin; assay: Fluorogenic protease activity assay, trypsin; type: biochemical, human; conditions: 10 μM inhibitor, Z-Gly-Gly-Arg-NH2Mec 50 μM, N = 3
# Text: as §1, §2
# [4] = target: T2, cathepsin G (Homo sapiens, UniProt P08311); assay: Fluorogenic protease activity assay, cathepsin G; type: biochemical; conditions: 10 μM inhibitor, Suc-Ala-Ala-Pro-Phe-NH2Mec 50 μM, N = 3
# T2 construct: purchased Elastin Products, Missouri
# T2 sequence (P08311 21-255): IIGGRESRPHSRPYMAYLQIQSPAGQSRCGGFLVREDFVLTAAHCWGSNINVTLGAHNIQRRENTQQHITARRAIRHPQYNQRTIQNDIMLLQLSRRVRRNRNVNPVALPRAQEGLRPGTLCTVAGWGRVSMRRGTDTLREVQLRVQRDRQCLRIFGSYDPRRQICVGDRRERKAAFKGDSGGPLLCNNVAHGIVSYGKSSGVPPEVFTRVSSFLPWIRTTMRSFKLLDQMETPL
# Text: as §1, §2
# [5] = system: cell surface furin-like activity (CuFi-1 epithelial cells); assay: Epithelial cell surface furin-like activity assay; type: cell-based, human; conditions: 10 μM inhibitor, pERTKR substrate 50 μM applied to cell cultures
# Protocol: The CuFi-1 cell line was derived from human airway epithelium of a CF patient (F508del/F508del) transformed with a reverse transcriptase component of telomerase, hTERT and human papillomavirus type 16 E6 and E7 genes. Cells were grown as submerged cultures using bronchial epithelial growth medium (BEBM including a supplement pack) containing: epidermal growth factor, hydrocortisone, bovine pituitary extract, transferrin, bovine insulin, triiodothyronine, epinephrine, retinoic acid, penicillin-streptomycin (0.025 μg/ml), gentamycin ([…]) and amphotericin (25 μg/ml).
# Cell culture media was removed from CuFi-1 epithelial cells grown in 96 well microtitre plates (Thermo Scientific Sterilin; clear bottom, black walled) and replaced with PBS /+ inhibitor compounds (furin I or QUB-F1). The furin fluorogenic substrate (pERTKR -NH2Mec) was then applied directly to the cell cultures to give a final concentration of 50 μM. Cell surface proteolytic activity was measured by monitoring the formation of–NH2Mec at λex 360 nm and λem 480 nm using a 5 mm orbital scan every 60 s over a 1 h period (FLUOstar Optima microplate reader; BMG Labtech).
# Fig 4 Effect of furin inhibitors on PEA-induced epithelial cell toxicity. (A) Cell toxicity (%) induced by 2 μg/ml PEA (24 h) was measured in the presence or absence of furin I or QUB-F1. Data represent mean ± s.e.m. *P<0.05. […]
# [6] = target: T3, neutrophil elastase (Homo sapiens, UniProt P08246); assay: Fluorogenic protease activity assay, neutrophil elastase; type: biochemical; conditions: 10 μM inhibitor, MeO-Suc-Ala-Ala-Pro-Val-NH2Mec 50 μM, N = 3
# T3 construct: purchased Merck Millipore
# T3 sequence (P08246 30-267): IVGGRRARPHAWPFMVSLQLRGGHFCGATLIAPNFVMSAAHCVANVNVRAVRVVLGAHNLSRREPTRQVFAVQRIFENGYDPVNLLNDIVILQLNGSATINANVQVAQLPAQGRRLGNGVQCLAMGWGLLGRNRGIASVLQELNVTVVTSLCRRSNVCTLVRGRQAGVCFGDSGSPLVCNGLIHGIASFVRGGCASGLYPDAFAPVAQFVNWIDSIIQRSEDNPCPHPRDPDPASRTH
# Text: as §1, §2
smiles,measurement,setting,value
"CCCCCCCCCCCCCCCC(=O)N[C@@H](CCCCNC(=O)CCCCCNC(=O)CCCC[C@@H]1SC[C@@H]2NC(=O)N[C@@H]21)C(=O)N[C@@H](CCCNC(=N)N)C(=O)N[C@H](C(=O)N[C@@H](CCCCN)C(=O)NC(CCCNC(=N)N)P(=O)(Oc1ccccc1)Oc1ccccc1)C(C)C (stereo partly drawn) [QUB-F1, N^α-Pal-N^ω-(Biotinyl-Ahx)-Lys-RVKR^P(OPh)2] (Palmitoyl-K([Ahx-Biotin])RVK-X1)",inhibition of proteinase 3,[1],Neither compound was found to inhibit
same,inhibition of chymotrypsin,[2],Neither compound was found to inhibit
same,inhibition of trypsin,[3],did not
same,inhibition of cathepsin G,[4],Neither compound was found to inhibit
same,inhibition of cell surface furin-like activity,[5],inhibited cell surface furin-like activity to the same extent as furin I
same,inhibition of neutrophil elastase,[6],Neither compound was found to inhibit

# Reference: paper PMC4961418, “A Selective Irreversible Inhibitor of Furin Does Not Prevent Pseudomonas Aeruginosa Exotoxin A-Induced Airway Epithelial Cytotoxicity” (PLoS ONE, 2016)
